Test results as given in patent US6617423B1, “Superpotent calcitonin analogs having greatly increased hypocalcemic action in vivo” (Fraunhofer-Gesellschaft zur Forderung der Angewandten …, priority 1997, dated 2003).

Test system: BALB/c mice
Assay: hypocalcemic test in vivo in BALB/c mice
Conditions: for biological activity as percentage activity of the hypocalcemic effect maximally achievable in this test: 100% = effect achieved by 2 μg of hCt, BALB/c mice
Description: The biological activity of the analogs was determined by means of a hypocalcemic test in vivo in BALB/c mice.
The biological activity is shown as a percentage [%] activity of the hypocalcemic effect maximally achievable in this test, as is achieved by 2 μg of hCt.

[1] = concentration of the peptides 0.1 ng/ml
[2] = concentration of the peptides 1 ng/ml
[3] = concentration of the peptides 10 ng/ml
[4] = concentration of the peptides 0.01 ng/ml
[5] = relative to hCt, mouse in-vivo test

Row | Substance | biological activity as percentage activity of the hypocalcemic effect maximally achievable in this test [1] | biological activity as percentage activity of the hypocalcemic effect maximally achievable in this test [2] | biological activity as percentage activity of the hypocalcemic effect maximally achievable in this test [3] | biological activity as percentage activity of the hypocalcemic effect maximally achievable in this test [4] | activity above the activity of the human calcitonin [5] | times more active than the original human calcitonin [5] | times more active than calcitonin from salmon (sCt) (relative to sCt, mouse in-vivo test)
1 | human calcitonin [hCt, reference compound] | 5.8% | 15.8% | 35.2% | – | – | – | –
2 | calcitonin from salmon [sCt, reference compound] | 51.6% | 63.2% | – | 21.1% | – | – | –
3 | cyclo^17,21-[Asp^17,Orn^21]-hCt [Cyclo^17,21-[Asp^17, Om^21]-hCt] | 68.4% | 76.3% | 86.8% | 36.8% | 363 fold | 360 times | three
